Source: patent US20260097047A1, “Small molecule inhibitors of the ribosome biogenesis factor NVL2” (Board of Regents, The University of Texas System, priority 2023, published 2026)
Where two headings read alike, the source gives them in different places.

System: HCT116 cells
Assay: Cell viability assay (CellTiter-Glo, 72 hours) in HCT116 human colorectal cancer cells
Format: cell-based
Procedure: Cell culture: The HCT116 cell line was obtained from ATCC and cultured in Dulbecco's Modified Eagle's Medium (DMEM)-high glucose (Sigma Aldrich #D5796) supplemented with 10% fetal bovine serum (FBS) (Sigma-Aldrich #F2442) and 2 mM L-Glutamine (Sigma Aldrich #G7513). Cells were cultured at 37° C. in 5% CO2. The identity of all cell lines was confirmed by short tandem repeat (STR) analysis and confirmed to be mycoplasma-free using a PCR based assay (Genatlantis).
Cell viability assay: In 96-well assay plates (Corning #2903), 2,000 cells were plated per well in 100 μL of medium and allowed to adhere overnight. The next day, compounds suspended in DMSO were dispensed to the assayed wells using a D300e Digital Dispenser (Tecan). All wells were normalized to 0.5% DMSO. 72 hours after incubation at 37° C. in 5% CO2, cell viability was assayed using an ATP-based luminescent viability assay, CellTiter-Glo (Promega #G8462). Substrate was mixed 1:1 with phosphate-buffered saline (PBS) supplemented with 1% Triton X-100, and 40 μL of this mixture was added to the assay wells. Plates were shaken on a microplate shaker for 10 minutes at room temperature. Luminescence (CellTiter-Glo) was recorded using a Synergy 2 microplate reader (BioTek). In Prism 9 software (GraphPad), ten-point dose response curves were plotted with baseline-correction to the vehicle control well, and IC50 values were calculated by curve fitting using asymmetric (five parameter), least squares fit.

[1] = Table 9, HCT116, 72 hours, read-out: Activity
[2] = Table 8, analogs of scaffold drawing 43 defined by R^2, R^3, X/Y, W, read-out: Activity (IC50 class, cell viability assay)

Structure (SMILES)	IC50 [1] [nM]	IC50 [2] [nM]
COc1ccc(C(=O)Nc2ccc3c(c2)C(C)(O)c2ccccc2C(=O)N3CC#CCl)cn1 (stereo not drawn)	< 500	
CC#CCN1C(=O)c2ccccc2C(C)c2cc(NC(=O)C34CC(O)(C3)C4)ccc21 (stereo not drawn)	< 500	
CC#CCN1C(=O)c2ccccc2C(C)c2cc(NC(=O)C3CC4(CC(O)C4)C3)ccc21 (stereo not drawn)	< 500	
CC#CCN1C(=O)c2ccccc2C(C)c2cc(NC(=O)C3CC4(CC(=NO)C4)C3)ccc21 (stereo not drawn)	< 500	
CC#CCN1C(=O)c2ccccc2C(C)c2cc(NC(=O)C3CC4(CC(=O)C4)C3)ccc21 (stereo not drawn)	< 500	
CC#CCN1C(=O)c2ccccc2C(C)c2cc(NC(=O)CC3COC3)ccc21 (stereo not drawn)	< 500	
CC#CCN1C(=O)c2ccccc2C(C)c2cc(NC(=O)C3CCOC3)ccc21 (stereo not drawn)	< 500	
CC#CCN1C(=O)c2ccccc2C(C)c2cc(NC(=O)C3CC3CO)ccc21 (stereo not drawn)	< 500	
CC1c2ccccc2C(=O)N(CC#CC2CC2)c2ccc(NC(=O)C3CC4(COC4)C3)cc21 (stereo not drawn)	< 500	
COC12CC(C(=O)Nc3ccc4c(c3)C(C)c3ccccc3C(=O)N4CC#CC3CC3)(C1)C2 (stereo not drawn)	< 500	
CC1c2ccccc2C(=O)N(CC#CC2CC2)c2ccc(NC(=O)C3CC4(CC(O)C4)C3)cc21 (stereo not drawn)	< 500	
CC1c2ccccc2C(=O)N(CC#CC2CC2)c2ccc(NC(=O)C3CC4(CC(=NO)C4)C3)cc21 (stereo not drawn)	< 500	
CC1c2ccccc2C(=O)N(CC#CC2CC2)c2ccc(NC(=O)C3CC4(CC(=O)C4)C3)cc21 (stereo not drawn)	< 500	
CC1c2ccccc2C(=O)N(CC#CC2CC2)c2ccc(NC(=O)CC3COC3)cc21 (stereo not drawn)	< 500	
CC1c2ccccc2C(=O)N(CC#CC2CC2)c2ccc(NC(=O)C3CCCO3)cc21 (stereo not drawn)	< 500	
CC1c2ccccc2C(=O)N(CC#CC2CC2)c2ccc(NC(=O)C3CCOC3)cc21 (stereo not drawn)	< 500	
COC1CC(C(=O)Nc2ccc3c(c2)C(C)c2ccccc2C(=O)N3CC#CC2CC2)C1 (stereo not drawn)	< 500	
COC12CC(C(=O)Nc3cnc4c(c3)Sc3ccccc3C(=O)N4CC#CC(F)(F)F)(C1)C2		< 500
O=C(Nc1cnc2c(c1)Sc1ccccc1C(=O)N2CC#CC(F)(F)F)C1CC2(CC(=NO)C2)C1 (stereo not drawn)		< 500
COC12CC(C(=O)Nc3cnc4c(c3)Sc3ccccc3C(=O)N4CC#CCF)(C1)C2		< 500
O=C(Nc1cnc2c(c1)Sc1ccccc1C(=O)N2CC#CCl)C1CC2(CC(=NO)C2)C1 (stereo not drawn)		< 500

Structure (SMILES)	IC50 [1] [nM]	IC50 [2] [nM]
O=C(Nc1ccc2c(c1)Sc1cc(Cl)ccc1C(=O)N2CC#CCl)C1CC2(CC(=NO)C2)C1 (stereo not drawn)		< 500
O=C(Nc1cnc2c(c1)Sc1cc(Cl)ccc1C(=O)N2CC#CCl)C1CC2(CC(=NO)C2)C1 (stereo not drawn)		< 500
O=C(Nc1ccc2c(c1)Sc1ccc(F)cc1C(=O)N2CC#CCl)C1CC2(CC(=NO)C2)C1 (stereo not drawn)		< 500
CON=C1CC2(C1)CC(C(=O)Nc1ccc3c(c1)Sc1cc(Cl)ccc1C(=O)N3CC#CCl)C2 (stereo not drawn)		< 500
CON=C1CC2(C1)CC(C(=O)Nc1ccc3c(c1)Sc1ccc(F)cc1C(=O)N3CC#CCl)C2 (stereo not drawn)		< 500
CON=C1CC2(C1)CC(C(=O)Nc1cnc3c(c1)Sc1cc(Cl)ccc1C(=O)N3CC#CCl)C2 (stereo not drawn)		< 500
CON=C1CC2(C1)CC(C(=O)Nc1ccc3c(c1)Sc1ccccc1C(=O)N3CC#CCl)C2 (stereo not drawn)		< 500
CON=C1CC2(C1)CC(C(=O)Nc1cnc3c(c1)Sc1ccccc1C(=O)N3CC#CCl)C2 (stereo not drawn)		< 500
C#CCN1C(=O)c2cc(F)ccc2Sc2cc(NC(=O)C3CC4(CC(=NO)C4)C3)ccc21 (stereo not drawn)		< 500
C#CCN1C(=O)c2ccccc2Sc2cc(NC(=O)C3CC4(CC(=NO)C4)C3)cnc21 (stereo not drawn)		< 500
C#CCN1C(=O)c2ccc(Cl)cc2Sc2cc(NC(=O)C3CC4(CC(=NO)C4)C3)ccc21 (stereo not drawn)		< 500
C#CCN1C(=O)c2ccc(Cl)cc2Sc2cc(NC(=O)C3CC4(CC(=NO)C4)C3)cnc21 (stereo not drawn)		< 500
C#CCN1C(=O)c2ccccc2Sc2cc(NC(=O)C3CC4(CC(=NO)C4)C3)ccc21 (stereo not drawn)		< 500
C#CCN1C(=O)c2ccc(Cl)cc2Sc2cc(NC(=O)C3CC4(CC(=NOC)C4)C3)ccc21 (stereo not drawn)		< 500
C#CCN1C(=O)c2cc(F)ccc2Sc2cc(NC(=O)C3CC4(CC(=NOC)C4)C3)ccc21 (stereo not drawn)		< 500
C#CCN1C(=O)c2ccc(Cl)cc2Sc2cc(NC(=O)C3CC4(CC(=NOC)C4)C3)cnc21 (stereo not drawn)		< 500
C#CCN1C(=O)c2ccccc2Sc2cc(NC(=O)C3CC4(CC(=NOC)C4)C3)cnc21 (stereo not drawn)		< 500
CC#CCN1C(=O)c2ccccc2Sc2cc(NC(=O)C3CCCN3C)ccc21 (stereo not drawn)		< 500
CC#CCN1C(=O)c2ccccc2Sc2cc(NC(=O)C3CCN(C)C3)ccc21 (stereo not drawn)		1000 to 5000
CC#CCN1C(=O)c2ccc(Cl)cc2Sc2cc(NC(=O)C3CC4(COC4)C3)cnc21		< 500
CC#CCN1C(=O)c2ccc(Cl)cc2Sc2cc(NC(=O)C3CC4(COC4)C3)ccc21		< 500

Structure (SMILES)	IC50 [1] [nM]	IC50 [2] [nM]
CC#CCN1C(=O)c2cc(F)ccc2Sc2cc(NC(=O)C3CC4(COC4)C3)ccc21		< 500
CC#CCN1C(=O)c2ccccc2Sc2cc(NC(=O)C3CCNC3=O)ccc21 (stereo not drawn)		500 to 1000
CC#CCN1C(=O)c2ccccc2Sc2cc(NC(=O)C34CC(C(F)(F)F)(C3)C4)ccc21		500 to 1000
CC#CCN1C(=O)c2ccccc2Sc2cc(NC(=O)C34CC(C#N)(C3)C4)ccc21		< 500
CC#CCN1C(=O)c2ccccc2Sc2cc(NC(=O)C34CC(F)(C3)C4)ccc21		< 500
CC#CCN1C(=O)c2cc(F)ccc2Sc2cc(NC(=O)C34CC(O)(C3)C4)ccc21		< 500
CC#CCN1C(=O)c2ccc(Cl)cc2Sc2cc(NC(=O)C34CC(O)(C3)C4)ccc21		< 500
CC#CCN1C(=O)c2ccc(F)cc2Sc2cc(NC(=O)c3ccc4oc(=O)n(C)c4c3)ccc21		< 500
CC#CCN1C(=O)c2cc(F)ccc2Sc2cc(NC(=O)c3ccc4oc(=O)n(C)c4c3)ccc21		< 500
CC#CCN1C(=O)c2ccccc2Sc2cc(NC(=O)C34CC(C)(C3)C4)ccc21		< 500
CC#CCN1C(=O)c2ccc(Cl)cc2Sc2cc(NC(=O)C34CC(OC)(C3)C4)cnc21		< 500
CC#CCN1C(=O)c2ccccc2Sc2cc(NC(=O)C34CC(OC)(C3)C4)ccc21		< 500
CC#CCN1C(=O)c2ccc(Cl)cc2Sc2cc(NC(=O)C3CC4(CC(O)C4)C3)ccc21 (stereo not drawn)		< 500
CC#CCN1C(=O)c2ccc(Cl)cc2Sc2cc(NC(=O)C3CC4(CC(=NO)C4)C3)ccc21 (stereo not drawn)		< 500
CC#CCN1C(=O)c2ccccc2Sc2cc(NC(=O)C3CC4(CC(=NO)C4)C3)ccc21 (stereo not drawn)		< 500
CC#CCN1C(=O)c2ccc(F)cc2Sc2cc(NC(=O)C3CC4(CC(=NO)C4)C3)ccc21 (stereo not drawn)		< 500
CC#CCN1C(=O)c2cc(F)ccc2Sc2cc(NC(=O)C3CC4(CC(=NO)C4)C3)ccc21 (stereo not drawn)		< 500
CC#CCN1C(=O)c2ccc(F)cc2Sc2cc(NC(=O)C3CC4(CC(=NOC)C4)C3)ccc21 (stereo not drawn)		< 500
CC#CCN1C(=O)c2cc(F)ccc2Sc2cc(NC(=O)C3CC4(CC(=NOC)C4)C3)ccc21 (stereo not drawn)		< 500
CC#CCN1C(=O)c2ccc(Cl)cc2Sc2cc(NC(=O)C3CC4(CC(=O)C4)C3)ccc21		< 500
CC#CCN1C(=O)c2ccccc2Sc2cc(NC(=O)C3CC4(CC(=O)C4)C3)ccc21		< 500

Structure (SMILES)	IC50 [1] [nM]	IC50 [2] [nM]
CC#CCN1C(=O)c2ccccc2Sc2cc(NC(=O)C3CCN(C)C3=O)ccc21 (stereo not drawn)		500 to 1000
CC#CCN1C(=O)c2ccc(F)cc2Sc2cc(NC(=O)c3ccc4scnc4c3)ccc21		< 500
CC#CCN1C(=O)c2ccccc2Sc2cc(NC(=O)C34CC(C3)C4)ccc21		< 500
CC#CCN1C(=O)c2ccc(Cl)cc2Sc2cc(NC(=O)C3CCCO3)ccc21 (stereo not drawn)		< 500
CC#CCN1C(=O)c2ccc(Cl)cc2Sc2cc(NC(=O)C3CCCO3)cnc21 (stereo not drawn)		< 500
CC#CCN1C(=O)c2ccccc2Sc2cc(NC(=O)C3CCCO3)ccc21 (stereo not drawn)		< 500
CC#CCN1C(=O)c2ccc(Cl)cc2Sc2cc(NC(=O)C3CCOC3)ccc21 (stereo not drawn)		< 500
CC#CCN1C(=O)c2ccc(Cl)cc2Sc2cc(NC(=O)C3CCOC3)cnc21 (stereo not drawn)		< 500
CC#CCN1C(=O)c2ccccc2Sc2cc(NC(=O)C3CCOC3)ccc21 (stereo not drawn)		< 500
O=C(Nc1cnc2c(c1)Sc1ccccc1C(=O)N2CC#CC1CC1)C1CC2(COC2)C1		< 500
N#CC12CC(C(=O)Nc3cnc4c(c3)Sc3ccccc3C(=O)N4CC#CC3CC3)(C1)C2		< 500
O=C1c2cc(F)ccc2Sc2cc(NC(=O)C34CC(O)(C3)C4)cnc2N1CC#CC1CC1		< 500
COC12CC(C(=O)Nc3cnc4c(c3)Sc3ccc(F)cc3C(=O)N4CC#CC3CC3)(C1)C2		< 500
COC12CC(C(=O)Nc3cnc4c(c3)Sc3ccccc3C(=O)N4CC#CC3CC3)(C1)C2		< 500
O=C(Nc1cnc2c(c1)Sc1ccc(F)cc1C(=O)N2CC#CC1CC1)C1CC2(CC(O)C2)C1 (stereo not drawn)		< 500
O=C(Nc1cnc2c(c1)Sc1ccccc1C(=O)N2CC#CC1CC1)C1CC2(CC(O)C2)C1 (stereo not drawn)		< 500
O=C(Nc1cnc2c(c1)Sc1ccccc1C(=O)N2CC#CC1CC1)C1CC2(CC(=NO)C2)C1 (stereo not drawn)		< 500
CON=C1CC2(C1)CC(C(=O)Nc1cnc3c(c1)Sc1ccc(F)cc1C(=O)N3CC#CC1CC1)C2 (stereo not drawn)		< 500
CON=C1CC2(C1)CC(C(=O)Nc1cnc3c(c1)Sc1ccccc1C(=O)N3CC#CC1CC1)C2 (stereo not drawn)		< 500
O=C1CC2(C1)CC(C(=O)Nc1cnc3c(c1)Sc1ccccc1C(=O)N3CC#CC1CC1)C2		< 500
O=C(Nc1cnc2c(c1)Sc1ccccc1C(=O)N2CC#CC1CC1)C1CCOC1 (stereo not drawn)		< 500
